Laboratory results taken from the pKa sets of Baltruschat and Czodrowski (2020).

conditions: acidic group

Row | Structure (SMILES) | pKa
1 | Cc1ccc(S(=O)(=O)NCCC(=O)[O-])cc1 | 11.2
2 | Cc1cccc(NS(=O)(=O)c2ccccc2)c1 | 8.48
3 | C[NH+]1C[C@H](C(=O)O)C=C2c3cccc4[nH]cc(c34)C[C@@H]21 | 3.25
4 | O=C(O)c1cccc(C2CC2)c1 | 4.28
5 | Nc1n[nH]c(N)c1/N=N/c1ccc(O)cc1 | 7.81
6 | O=[Se](O)c1cccc(-c2ccccc2)c1 | 4.87
7 | C[n+]1ccsc1N | 9.65
8 | O=C(O)C#Cc1ccccc1 | 2.26
9 | c1coc(CSc2ncnc3nc[nH]c23)c1 | 8.42
10 | O=C1NC(=O)c2c1cccc2[N+](=O)[O-] | 8.8
11 | O=C1NS(=O)(=O)c2ccccc21 | 1.76
12 | CCc1nnc(CC)n1N | 9.77
13 | O=C(O)C[NH+](CC(=O)O)Cc1ccccc1O | 2.2
14 | Cc1c([N+](=O)[O-])cc(Cl)c2nnn(O)c12 | 3.17
15 | O=C(O)C=C=Cc1ccccc1 | 3.7
16 | O=Cc1cc(Br)cc([N+](=O)[O-])c1O | 4.46
17 | CC1(C)CCC(C(=O)O)=[N+]1[O-] | 2.8
18 | COc1cc(OC)nc(NS(=O)(=O)c2ccc(N)cc2)n1 | 7.12
19 | CCCC(O)C(C(=O)O)c1ccc(-c2ccccc2)cc1 (stereo not drawn) | 4.01
20 | CC1(C)C(=O)[CH-]C(=O)CC1=O | 9.73
21 | O=C(O)c1cccc[nH+]1 | 1.25
22 | Oc1ccc2cccc(Cl)c2c1 | 8.69

Row | Structure (SMILES) | pKa
23 | Cc1cc(S(=O)(=O)N(CCO)CCO)cc(C)c1O | 8.25
24 | O=C(O)c1cc(-c2ccccc2)oc(=O)c1 | 3.3
25 | CCOC(=O)COc1ccc(Oc2ccc(O)c(C[NH3+])c2)c(Cl)c1Cl | 8.55
26 | CC(c1cccc(Cl)c1)[N+](=O)[O-] (stereo not drawn) | 7.05
27 | O/C(=C/c1cccnc1)c1ccccc1 | 8.79
28 | Cc1ccc([N+](C)(C)C)cc1O | 8.2
29 | Cn1cnc2c(O)[nH+]cnc21 | 1.86
30 | Sc1cccc(Cl)c1 | 5.76
31 | O/N=C1\CCCCC\C1=N/O | 10.7
32 | O/N=C/c1ccccc1 | 10.8
33 | Oc1cccc2cnccc12 | 8.45
34 | O/N=C/C(Cl)=N\O | 8.24
35 | O/N=C\C=C\c1ccccc1 | 10.9
36 | O=Cc1ccccc1O | 8.36
37 | O=C(O)c1ccc(/C=C/[N+](=O)[O-])cc1 | 3.94
38 | CC(=O)Nc1nnc(-c2ccccc2)s1 | 8.9
39 | O=C(CC(=O)C(F)(F)F)c1cccs1 | 6.31
40 | COc1ccccc1/C=C\C(=O)O | 4.27
41 | [NH3+]CCc1ccccc1O | 9.19
42 | CNc1ncnc2nc[nH]c12 | 10
43 | CCCCC([NH3+])C(=O)O (stereo not drawn) | 2.29
44 | CC(C)OO | 12.1

Row | Structure (SMILES) | pKa
45 | C/C(O)=C/C(=O)[O-] | 13.2
46 | Oc1cccc2ccncc12 | 8.4
47 | c1ccc2c(c1)[nH]c1c2cc[n+]2cc3c(cc12)CCCC3 | 10.6
48 | CC1(C)CC(=O)C(=NO)C(=O)C1 | 5.4
49 | O=C(O)CCCl | 4.04
50 | Oc1cccc2c1CCCC2 | 10.5
51 | Sc1cccc2ccc[nH+]c12 | 2.05
52 | Nc1c(C(=O)O)[nH+]cn1[C@H]1O[C@@H](CO)[C@H](O)[C@@H]1O | 2.9
53 | Cc1cc(OS(=O)(=O)[O-])c2oc(-c3cc4ccc(O)cc4oc3=O)nc2c1 | 6.8
54 | O=C1O[C@@H]([C@H](O)[C@@H](O)[C@@H](O)CO)C(O)=C1O | 4.3
55 | O=C(O)CCBr | 3.86
56 | O=C(O)CCCP | 4.53
57 | O=C(O)C[C@@H]1NC(=O)CNC1=O | 3.93
58 | Sc1nnco1 | 3.85
59 | CCC(=O)c1cc(C(=O)C(C)(C)C)n[nH]1 | 9.7
60 | N#Cc1ccc(O)c(O)c1 | 7.72
61 | Cc1ccc(S(=O)(=O)NCC[NH+](CC(=O)[O-])CC(=O)[O-])cc1 | 7.86
62 | CCCCCCCCc1c(-c2ccccc2)nn(-c2ccccc2)c1O | 7.5
63 | Cc1[nH]ccc1C(=O)O | 5.8
64 | CCOC(=O)C(Cc1ccccc1)C(C)=O (stereo not drawn) | 11.8
65 | NC1=[NH+][C@@H](CC(=O)O)C(=O)N1CCCC([NH3+])C(=O)O (stereo partly drawn) | 1.86
66 | NC(=O)CCCc1ccccn1 | 5.48

Row | Structure (SMILES) | pKa
67 | CC(C)(S)CN | 11
68 | CCOC(=O)COc1ccc(S(=O)(=O)c2ccc(O)c(C[NH3+])c2)c(Cl)c1Cl | 6.67
69 | [NH3+]c1ccccc1C(=O)O | 2.08
70 | O=Cc1ccc(O)cc1 | 7.53
71 | CC(=O)c1c(C(=O)O)cccc1[N+](=O)[O-] | 3.26
72 | Nc1ncnc2cn[nH]c12 | 10.2
73 | COc1cccc(NS(=O)(=O)c2ccccc2)c1 | 7.95
74 | CCC1(c2ccccc2)C(=O)NC(=S)N(C)C1=O (stereo not drawn) | 7.65
75 | [NH3+][C@H]1CCC[C@H](C(=O)O)C1 | 3.85
76 | Nc1nc[nH+]c2c1ncn2CCOCP(=O)(O)O | 1.22
77 | Cn1c(=O)c2c([nH]c(=O)n2C)n(C)c1=O | 6
78 | Nc1ccc(S(=O)(=O)Nc2nccs2)c(Cl)c1 | 6.95
79 | C/C(=N\O)C(=O)[O-] | 11.4
80 | O=S(=O)([O-])c1cc(O)c2[nH]ncc2c1 | 8
81 | O=C(O)c1cc([N+](=O)[O-])cs1 | 2.83
82 | Cc1cc(O)n(-c2ccccc2)n1 | 11.3
83 | O/N=C/C=C/c1ccccc1 | 10.6
84 | Oc1c(Cl)cccc1Cl | 6.8
85 | [O-]c1ccc(/C=N/O)cc1 | 12

same assay, conditions: basic group

Row | Structure (SMILES) | pKa
86 | Cn1cncc1C[C@H](N)C(=O)[O-] | 8.72
87 | CN1CC[C@]23c4c5ccc(O)c4O[C@H]2[C@@H](O)CC[C@H]3[C@H]1C5 | 8.94
88 | Nc1cccc2[nH]ncc12 | 3.29
89 | CN(C)CCCN=C(c1ccccc1)c1ccccc1 | 9.4
90 | COc1cc(C)n(-c2ccccc2)n1 | 1.5
91 | Nc1n[nH]c(N)c1/N=N/c1ccc(O)cc1 | 3.48
92 | N/C(CC[NH3+])=N\O | 3.75
93 | CCOC(=O)c1ccc(N)cc1 | 2.58
94 | C[n+]1cnc2nc([O-])cnc2c1[O-] | 6.19
95 | CO[C@H]1C=CC2=CCN3CCC(CO)=C(CCO)[C@]23C1 | 7.8
96 | Cc1[nH+]c2cc(N)ccc2n1C | 3.38
97 | Cc1ccccc1/C(=N\CCC[NH+](C)C)c1ccccc1N | 3.82
98 | Nc1cccc2ccc([N+](=O)[O-])cc12 | 2.83
99 | CCc1cc(CC)c(OC)c(C(=O)NC[C@H]2CCCN2CC)c1[O-] | 9.54
100 | CCSC(=O)c1cccc(Br)c1 | -5.53
101 | NCC(N)CN | 9.59
102 | c1cnc2c(c1)ccc1c3c(cnc12)CCCC3 | 5.66
103 | Oc1ccc(C2NCCS2)cc1 (stereo not drawn) | 5.5
104 | CC(C)NCC(=O)[O-] | 10.1
105 | O=C(O)c1cccc[nH+]1 | -0.84
106 | CN(C)CC[N-]S(=O)(=O)c1cccc2c(N(C)C)cccc12 | 10.9
107 | NCC(=O)c1ccc(O)cc1 | 8.05

Row | Structure (SMILES) | pKa
108 | O/C(=C/c1cccnc1)c1ccccc1 | 5.84
109 | C[NH2+]CCN(C)CC[NH3+] | 3.38
110 | CNc1cc[nH+]c([O-])n1 | 4.55
111 | Oc1cccc2cnccc12 | 5.4
112 | CCOCCNc1ccc(Cl)cc1 | 3.28
113 | Nc1ccc2c(Cl)c3ccccc3nc2c1 | 6.74
114 | c1ccc2cnccc2c1 | 5.36
115 | CN(C)CC[NH+](C)C | 6.04
116 | c1ccc(Cc2cc(-c3ccccc3)nnc2NCC[NH+]2CCOCC2)cc1 | 3.6
117 | c1ccc(CSc2ccccn2)cc1 | 3.23
118 | CCN(CC)CCCC(C)Nc1ccnc2cc(Br)ccc12 (stereo not drawn) | 10.2
119 | COc1ccc(S(=O)(=O)CCN2CCOCC2)c(OC)c1OC | 4.89
120 | OCCCCc1ccccn1 | 5.83
121 | OC[C@H]1CCCN2CCCC[C@@H]12 | 10.2
122 | C[NH+]1CCC(NN)CC1 | 5.7
123 | COc1c(C(=O)N[C@@H]2C[C@H]3CC[C@@H](C2)N3Cc2ccccc2)cccc1[N+](=O)[O-] | 8.61
124 | CNc1ncnc2nc[nH]c12 | 4.31
125 | C(C[NH2+]CCc1nnn[n-]1)NCCc1nnn[n-]1 | 6.3
126 | Nc1ccnc(N)n1 | 7.26
127 | OCNc1nc(NCO)nc(NCO)n1 | 4.05
128 | CN1C[C@H](CO)C[C@H]2c3cccc4[nH]cc(c34)C[C@@H]21 | 8.84
129 | Nc1nnnn1-c1cccc([N+](=O)[O-])c1 | 0.47

Row | Structure (SMILES) | pKa
130 | Nc1c([N+](=O)[O-])ccc2ccccc12 | -1.6
131 | CCn1nc(-c2ccccc2)sc1=N | 6.1
132 | CCCCCNN | 6.25
133 | Oc1cccc2ccncc12 | 5.66
134 | CN(C)c1ccc2c(c1)Sc1cc([NH+](C)C)ccc1N2 | 5.27
135 | CC(C)N(c1ccccc1)C(C)C | 6.19
136 | CCCN(CCC)CCc1c[nH]c2ccccc12 | 8.6
137 | COc1ccc([N+](=O)[O-])cc1C(=O)N[C@@H]1C[C@H]2CC[C@@H](C1)N2Cc1ccccc1 | 8.7
138 | CC(C)(C)CC(=O)n1ccnc1 | 3.8
139 | CCCCCCCCCCCCCCCCN(CC(O)CC)CC(O)CC (stereo not drawn) | 5.6
140 | O=C(Cc1ccccc1Nc1c(Cl)cccc1Cl)OCCCN1CCOCC1 | 7.99
141 | Cc1cc(O)cc(O)c1C(=N)c1ccccc1 | 6.75
142 | CCN(CC)Cc1cc(Br)ccc1[O-] | 10.7
143 | COCC/N=C(\c1ccccc1)C(C)(C)O | 5.75
144 | CCN(CC)Cc1cccc(C)c1O | 8.19
145 | c1ccc(-c2cnc(-c3ccccc3)o2)cc1 | 0.84
146 | CC(C)CN | 10.4
147 | CCN(CC)CCOCC[NH+](CC)CC | 8.61
148 | NCC(N)=S | 7.27
149 | FC(F)(F)c1cccc2ncccc12 | 3.09
150 | Cc1nccc2c1[nH]c1ccc([N+](=O)[O-])cc12 | 6.24
151 | c1cc(N2CCCCC2)ccc1N1CCCCC1 | 6.5

Row | Structure (SMILES) | pKa
152 | CC(C)(S)CN | 8.48
153 | C=CC(=O)OCCN(C)C | 7.9
154 | CC(O)CNCC(C)O (stereo not drawn) | 8.88
155 | CCCCCCCCCCCCCCCCCCNCCCCCCCCCCCCCCCCCC | 11
156 | CCC(C)(C)Nc1ccccc1 | 6.55
157 | NCCCCCCCCCC(=O)[O-] | 11
158 | CCN(CC)CCSC(C)C | 9.32
159 | c1ccc2cnncc2c1 | 3.47
160 | CC(C=C(c1cccs1)c1cccs1)N1CCCCCCC1 (stereo not drawn) | 7.52
161 | CC(C)NNC1CCN(C)CC1 | 9.07
162 | COc1nc2ccccc2nc1C | 1.38
163 | Nc1ncnc2cn[nH]c12 | 5
164 | Cn1/c(=N/N)ccc2ccccc21 | 9.17
165 | c1ccc2c(c1)NCCN2 | 4.84
166 | [O-]c1ncc2ccccc2n1 | 10.7
167 | Nc1nc[nH+]c2c1ncn2CCOCP(=O)(O)O | -0.35
168 | NCCNCc1ccccc1 | 9.41
169 | COc1cccnc1C=O | 3.89
170 | CNCCO | 9.91
171 | O=C([O-])C1CCCN1 (stereo not drawn) | 10.6
172 | CSc1nccc2ccccc12 | 3.93
173 | Cc1cc(O)n(-c2ccccc2)n1 | 1.07
